Tested on: patients with advanced solid tumors
Assay: phase I dose escalation: safety, DLT, MTD, RP2D (CTCAE v. 5)
Assay type: in vivo
From the text: Subsequent dosing cohorts were enrolled using a standard 3 + 3 design.
If any patient in any cohort of three patients developed a DLT during cycle 1, an additional three patients were recruited to expand the cohort to up to six evaluable patients. If two or more patients in any expanded cohort developed a DLT, this dose was considered non-tolerated, and dose escalation was discontinued. The MTD was defined as the highest dose level for which no more than one of six patients experienced a DLT.
Patients were continuously evaluated for adverse events throughout the study using the Common Terminology Criteria of Adverse Events (CTCAE v. 5). The patients underwent a clinical history and physical examination, an ECOG PS, a complete blood count (CBCs), chemistry, coagulation studies, urinalysis, a serum pregnancy test (as applicable), a triplicate ECG, an ophthalmology examination, and baseline tumor assessment at screening. During cycle 1, weekly history and physical examination, CBC, chemistry, coagulation parameters, urinalysis, and triplicate ECGs were performed; in subsequent cycles, weekly labs were limited to a CBC. Repeat ophthalmology examinations were performed at cycle 3, day 1, and at the end of treatment. Repeat tumor assessment was performed every 2 cycles (6 weeks) in accordance with RECIST 1.1.

[1] = All 4:3 Patients (n = 20), All Grades
[2] = All Continuous Patients (N=8), All grades
[3] = All Continuous Patients (N=8), G1
[4] = All Continuous Patients (N=8), G2
[5] = All Continuous Patients (N=8), G3

## CC(C)[C@H](N)C(=O)SCC/C=C/[C@@H]1CC(=O)NCc2nc(cs2)C(=O)NC(C)(C)C(=O)N[C@@H](C(C)C)C(=O)O1 [OKI-179, Bocodepsin]
5:2, 300 mg (N=6), G2
  TEAE: Platelet count decreased: 0 N (%)
  TEAE: Pneumonitis: 1 (17) N (%)
  TEAE: Pneumothorax: 0 N (%)
  TEAE: Vomiting: 1 (17) N (%)
5:2, 300 mg (N=6), G3
  TEAE: Abdominal pain: 0 N (%)
  TEAE: Anemia: 1 (17) N (%)
  TEAE: Aspartate aminotransferase increased: 0 N (%)
  TEAE: Back pain: 1 (17) N (%)
  TEAE: Bile duct stenosis: 1 (17) N (%)
  TEAE: Blood alkaline phosphatase increased: 0 N (%)
  TEAE: Decreased appetite: 1 (17) N (%)
  TEAE: Dehydration: 0 N (%)
  TEAE: Dysphagia: 0 N (%)
  TEAE: ECG QT prolonged: 0 N (%)
  TEAE: Enterococcal bacteremia: 1 (17) N (%)
  TEAE: Esophagitis: 0 N (%)
  TEAE: Esophagoscopy: 0 N (%)
  TEAE: Eye pain: 0 N (%)
  TEAE: Fatigue: 0 N (%)
  TEAE: Gastritis: 0 N (%)
  TEAE: Hypomagnesaemia: 0 N (%)
  TEAE: Myalgia: 0 N (%)
  TEAE: Nausea: 1 (17) N (%)
  TEAE: Neutrophil count decreased: 0 N (%)
  TEAE: Oropharyngeal pain: 0 N (%)
  TEAE: Pain in extremity: 0 N (%)
  TEAE: Paresthesia: 0 N (%)
  TEAE: Platelet count decreased: 0 N (%)
  TEAE: Pneumonitis: 0 N (%)
  TEAE: Pneumothorax: 1 (17) N (%)
  TEAE: Vomiting: 0 N (%)
5:2 cohort, 300 mg
  TEAE: Fatigue: 67%
  TEAE: Nausea: 83%
  TEAE: Vomiting: 50%
  TEAE: decreased platelet count: 67%
[1]
  TEAE: Anemia: 8 (40) n (%)
  TEAE: Back pain: 4 (20) n (%)
  TEAE: Cough: 4 (20) n (%)
  TEAE: Decreased appetite: 7 (35) n (%)
  TEAE: Diarrhea: 5 (25) n (%)
  TEAE: Dyspnea: 3 (15) n (%)
  TEAE: ECG QT prolonged: 4 (20) n (%)
  TEAE: Fatigue: 8 (40) n (%)
  TEAE: Headache: 3 (15) n (%)
  TEAE: Hypokalaemia: 3 (15) n (%)
  TEAE: Muscular weakness: 4 (20) n (%)
  TEAE: Nasal congestion: 3 (15) n (%)
  TEAE: Platelet count decreased: 6 (30) n (%)
  TEAE: Proteinuria: 3 (15) n (%)
  TEAE: Pyrexia: 4 (20) n (%)
  TEAE: Vomiting: 6 (30) n (%)
  TEAE: Weight decreased: 3 (15) n (%)
All 4:3 Patients (n = 20), G1
  TEAE: Anemia: 1 (5) n (%)
  TEAE: Back pain: 3 (15) n (%)
  TEAE: Cough: 3 (15) n (%)
  TEAE: Decreased appetite: 4 (20) n (%)
  TEAE: Diarrhea: 5 (25) n (%)
  TEAE: Dyspnea: 3 (15) n (%)
  TEAE: ECG QT prolonged: 1 (5) n (%)
  TEAE: Fatigue: 3 (15) n (%)
  TEAE: Headache: 3 (15) n (%)
  TEAE: Hypokalaemia: 1 (5) n (%)
  TEAE: Muscular weakness: 1 (5) n (%)
  TEAE: Nasal congestion: 3 (15) n (%)
  TEAE: Nausea: 9 (45) n (%)
  TEAE: Platelet count decreased: 4 (20) n (%)
  TEAE: Proteinuria: 0 n (%)
  TEAE: Pyrexia: 3 (15) n (%)
  TEAE: Vomiting: 5 (25) n (%)
  TEAE: Weight decreased: 2 (10) n (%)
All 4:3 Patients (n = 20), G2
  TEAE: Anemia: 2 (10) n (%)
  TEAE: Back pain: 0 n (%)
  TEAE: Cough: 1 (5) n (%)
  TEAE: Decreased appetite: 3 (15) n (%)
  TEAE: Diarrhea: 0 n (%)
  TEAE: Dyspnea: 0 n (%)
  TEAE: ECG QT prolonged: 0 n (%)
  TEAE: Fatigue: 2 (10) n (%)
  TEAE: Headache: 0 n (%)
  TEAE: Hypokalaemia: 2 (10) n (%)
  TEAE: Muscular weakness: 2 (10) n (%)
  TEAE: Nasal congestion: 0 n (%)
  TEAE: Nausea: 4 (20) n (%)
  TEAE: Platelet count decreased: 2 (10) n (%)
  TEAE: Proteinuria: 3 (15) n (%)
  TEAE: Pyrexia: 0 n (%)
  TEAE: Vomiting: 1 (5) n (%)
  TEAE: Weight decreased: 1 (5) n (%)
All 4:3 Patients (n = 20), G3
  TEAE: Anemia: 5 (25) n (%)
  TEAE: Back pain: 1 (5) n (%)
  TEAE: Cough: 0 n (%)
  TEAE: Decreased appetite: 0 n (%)
  TEAE: Diarrhea: 0 n (%)
  TEAE: Dyspnea: 0 n (%)
  TEAE: ECG QT prolonged: 3 (15) n (%)
  TEAE: Fatigue: 3 (15) n (%)
  TEAE: Headache: 0 n (%)
  TEAE: Hypokalaemia: 0 n (%)
  TEAE: Muscular weakness: 1 (5) n (%)
  TEAE: Nasal congestion: 0 n (%)
  TEAE: Nausea: 0 n (%)
  TEAE: Platelet count decreased: 0 n (%)
  TEAE: Proteinuria: 0 n (%)
  TEAE: Pyrexia: 1 (5) n (%)
  TEAE: Vomiting: 0 n (%)
  TEAE: Weight decreased: 0 n (%)
[2]
  TEAE: Abdominal pain: 2 (25) N (%)
  TEAE: Anemia: 2 (25) N (%)
  TEAE: Constipation: 6 (75) N (%)
  TEAE: Decreased appetite: 2 (25) N (%)
  TEAE: Diarrhea: 3 (38) N (%)
  TEAE: Dyspepsia: 2 (25) N (%)
  TEAE: ECG QT prolonged: 2 (25) N (%)
  TEAE: Fatigue: 4 (50) N (%)
  TEAE: Headache: 3 (38) N (%)
  TEAE: Nausea: 6 (75) N (%)
  TEAE: Pain: 2 (25) N (%)
  TEAE: Platelet count decreased: 4 (50) N (%)
[3]
  TEAE: Abdominal pain: 1 (13) N (%)
  TEAE: Anemia: 0 N (%)
  TEAE: Constipation: 3 (38) N (%)
  TEAE: Decreased appetite: 1 (13) N (%)
  TEAE: Diarrhea: 3 (38) N (%)
  TEAE: Dyspepsia: 1 (13) N (%)
  TEAE: ECG QT prolonged: 1 (13) N (%)
  TEAE: Fatigue: 1 (13) N (%)
  TEAE: Headache: 3 (38) N (%)
  TEAE: Nausea: 4 (50) N (%)
  TEAE: Pain: 1 (13) N (%)
  TEAE: Platelet count decreased: 1 (13) N (%)
[4]
  TEAE: Abdominal pain: 1 (13) N (%)
  TEAE: Anemia: 2 (25) N (%)
  TEAE: Constipation: 3 (38) N (%)
  TEAE: Decreased appetite: 0 N (%)
  TEAE: Diarrhea: 0 N (%)
  TEAE: Dyspepsia: 1 (13) N (%)
  TEAE: ECG QT prolonged: 1 (13) N (%)
  TEAE: Fatigue: 2 (25) N (%)
  TEAE: Headache: 0 N (%)
  TEAE: Nausea: 2 (25) N (%)
  TEAE: Pain: 1 (13) N (%)
  TEAE: Platelet count decreased: 1 (13) N (%)
[5]
  TEAE: Abdominal pain: 0 N (%)
  TEAE: Anemia: 0 N (%)
  TEAE: Constipation: 0 N (%)
  TEAE: Decreased appetite: 1 (13) N (%)
  TEAE: Diarrhea: 0 N (%)
  TEAE: Dyspepsia: 0 N (%)
  TEAE: ECG QT prolonged: 0 N (%)
  TEAE: Fatigue: 1 (13) N (%)

— article PMC10778198, “First-in-Human Dose-Escalation Study of the Novel Oral Depsipeptide Class I-Targeting HDAC Inhibitor Bocodepsin (OKI-179) in Patients with Advanced Solid Tumors” (Cancers, 2023)
